The numbers were not newly measured in PubChem BioAssay AID1259409 (Chemical Carcinogenesis Research Information System (CCRIS), 2018), which cites them from elsewhere.

Molecules are shown by their SMILES.

For this data set, the system named is rodent chemically induced tumor inhibition, incidence and multiplicity. Briefly: CCRIS tumor inhibitor studies. As to conditions: Route [Inhibitor]: ORAL, Species: RAT.

In the case of `COc1cc(/C=C/C(=O)O[C@H]2CC[C@]34C[C@]35CC[C@]3(C)[C@@H]([C@H](C)CCC=C(C)C)CC[C@@]3(C)[C@@H]5CC[C@H]4C2(C)C)ccc1O`, the “tumour outcome (control, treated, inhibition, significance)” value (Carcinogen: 3,2'-DIMETHYL-4-AMINOBIPHENYL, 13394-86-0, Dose [Inhibitor]: 0, 2% IN BASAL DIET BEGINNING POST CARCINOGEN TREATMENT AND CONTINUING FOR 40 WK (STUDY DURATION: 60 WK), Strain/Sex: F344/MALE, Target Tissue: Type of Lesion: SMALL INTESTINE: ADENOMA AND ADENOCARCINOMA, Dose [Carcinogen]: 50 MG/KG 1/2 WK FOR 20 WK TO RATS MAINTAINED ON ETHINYL ESTRADIOL CONTAINING DIET (0.75 PPM) FOR 1 WK CYCLED WITH ETHINY, Promoter: ETHINYL ESTRADIOL, 57-63-6) is given as 2/10 (20%), 3/13 (23%), -15%, not significant; the “tumour outcome (control, treated, inhibition, significance)” value (Carcinogen: 3,2'-DIMETHYL-4-AMINOBIPHENYL, 13394-86-0, Dose [Inhibitor]: 0, 2% IN BASAL DIET BEGINNING POST CARCINOGEN TREATMENT AND CONTINUING FOR 40 WK (STUDY DURATION: 60 WK), Strain/Sex: F344/MALE, Target Tissue: Type of Lesion: SUBCUTIS: TUMOR, Dose [Carcinogen]: 50 MG/KG 1/2 WK FOR 20 WK TO RATS MAINTAINED ON ETHINYL ESTRADIOL CONTAINING DIET (0.75 PPM) FOR 1 WK CYCLED WITH ETHINY, Promoter: ETHINYL ESTRADIOL, 57-63-6) is 1/10 (10%), 0/13 (0%), 100%, not significant; the “tumour outcome (control, treated, inhibition, significance)” value (Carcinogen: 3,2-DIMETHYL-4-AMINOBIPHENYL, 13394-86-0, Dose [Inhibitor]: 0, 2% IN BASAL DIET BEGINNING POST CARCINOGEN TREATMENT AND CONTINUING FOR 40 WK (STUDY DURATION: 60 WK), Strain/Sex: F344/MALE, Target Tissue: Type of Lesion: PREPUTIAL GLAND: ADENOMA AND CARCINOMA, Dose [Carcinogen]: 50 MG/KG 1/2 WK FOR 20 WK TO RATS MAINTAINED ON ETHINYL ESTRADIOL CONTAINING DIET (0.75 PPM) FOR 1 WK CYCLED WITH ETHINY, Promoter: ETHINYL ESTRADIOL, 57-63-6) was 5/10 (50%), 8/13 (62%), -24%, not significant; the “tumour outcome (control, treated, inhibition, significance)” value (Carcinogen: 3,2-DIMETHYL-4-AMINOBIPHENYL, 13394-86-0, Dose [Inhibitor]: 0, 2% IN BASAL DIET BEGINNING POST CARCINOGEN TREATMENT AND CONTINUING FOR 40 WK (STUDY DURATION: 60 WK), Strain/Sex: F344/MALE, Target Tissue: Type of Lesion: ZYMBAL GLAND: ADENOMA AND CARCINOMA, Dose [Carcinogen]: 50 MG/KG 1/2 WK FOR 20 WK TO RATS MAINTAINED ON ETHINYL ESTRADIOL CONTAINING DIET (0.75 PPM) FOR 1 WK CYCLED WITH ETHINY, Promoter: ETHINYL ESTRADIOL, 57-63-6) is 2/10 (20%), 0/13 (0%), 100%, not significant; the “tumour outcome (control, treated, inhibition, significance)” value (Carcinogen: 3,2-DIMETHYL-4-AMINOBIPHENYL, 13394-86-0, Dose [Inhibitor]: 0, 200% PPM IN BASAL DIET BEGINNING POST CARCINOGEN TREATMENT AND CONTINUING FOR 40 WK (STUDY DURATION: 60 WK), Strain/Sex: F344/MALE, Target Tissue: Type of Lesion: LARGE INTESTINE: ADENOMA AND ADENOCARCINOMA, Dose [Carcinogen]: 50 MG/KG 1/2 WK FOR 20 WK TO RATS MAINTAINED ON ETHINYL ESTRADIOL CONTAINING DIET (0.75 PPM) FOR 1 WK CYCLED WITH ETHINY, Promoter: ETHINYL ESTRADIOL, 57-63-6) is reported as 3/10 (30%), 3/13 (23%), 23%, not significant; the “tumour outcome (control, treated, inhibition, significance)” value (Carcinogen: 7,12-DIMETHYLBENZ[A]ANTHRACENE [57-97-6], Dose [Inhibitor]: 1% IN DIET FOR 35 WK BEGINNING 1 WK POST LAST CARCINOGEN DOSE (STUDY DURATION: 36 WK), Strain/Sex: SPRAGUE-DAWLEY/FEMALE, Target Tissue: Type of Lesion: MAMMARY GLAND: CARCINOMA, Dose [Carcinogen]: 50 MG/KG BW ONCE (STUDY DURATION: 36 WK), Promoter: NONE) is 14/15 (93%), 15/16 (94%), -1%, not significant. Moreover, the “tumour outcome (control, treated, inhibition, significance)” value is, setting by setting: (Carcinogen: 7,12-DIMETHYLBENZ[A]ANTHRACENE [57-97-6], Dose [Inhibitor]: 1% IN DIET FOR 35 WK BEGINNING 1 WK POST LAST CARCINOGEN DOSE (STUDY DURATION: 36 WK), Strain/Sex: SPRAGUE-DAWLEY/FEMALE, Target Tissue: Type of Lesion: MAMMARY GLAND: FIBROADENOMA, Dose [Carcinogen]: 50 MG/KG BW ONCE (STUDY DURATION: 36 WK), Promoter: NONE) 3/15 (20%), 2/16 (13%), 35%, not significant; (Carcinogen: 7,12-DIMETHYLBENZ[A]ANTHRACENE, 57-97-6, Dose [Inhibitor]: 0, 1% IN DIET FOR 35 WK BEGINNING POST CARCINOGEN DOSE (STUDY DURATION: 36 WK), Strain/Sex: SPRAGUE-DAWLEY/FEMALE, Target Tissue: Type of Lesion: EAR DUCT: TUMOR, Dose [Carcinogen]: 50 MG/KG BW IN CORN OIL ONCE, Promoter: NONE USED) 5/15 (33%), 7/16 (44%), -33%, not significant; (Carcinogen: 7,12-DIMETHYLBENZ[A]ANTHRACENE, 57-97-6, Dose [Inhibitor]: 0, 1% IN DIET FOR 35 WK BEGINNING POST CARCINOGEN DOSE (STUDY DURATION: 36 WK), Strain/Sex: SPRAGUE-DAWLEY/FEMALE, Target Tissue: Type of Lesion: MAMMARY GLAND: ADENOCARCINOMA, Dose [Carcinogen]: 50 MG/KG BW IN CORN OIL ONCE, Promoter: NONE USED) 14/15 (93%), 15/16 (94%), -1%, not significant; (Carcinogen: 7,12-DIMETHYLBENZ[A]ANTHRACENE, 57-97-6, Dose [Inhibitor]: 0, 1% IN DIET FOR 35 WK BEGINNING POST CARCINOGEN DOSE (STUDY DURATION: 36 WK), Strain/Sex: SPRAGUE-DAWLEY/FEMALE, Target Tissue: Type of Lesion: MAMMARY GLAND: FIBROADENOMA, Dose [Carcinogen]: 50 MG/KG BW IN CORN OIL ONCE, Promoter: NONE USED) 3/15 (20%), 2/16 (13%), 35%, not significant.
